Legend:
Assay in all cases: normalised response (% of control), CellTox Green; higher = less cell death (100 = DMSO, 0 = benzethonium chloride kill control)
Conditions in all cases: incubation time: 72 h
[1] = system: BT-474
How it was run: (§1)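 CellTox Green fluorescence (485/520 nm) and, after 10 min at room temperature, CellTiter-Glo luminescence were read from breast cancer cell lines incubated 72 h in 384-well plates. Cells were seeded as 20 µl suspension onto compound at 5 concentrations in 10-fold steps over a 10,000-fold range chosen per compound. Each plate was normalised to 0.1 % DMSO (100) and a positive kill control (0). Values are normalised signals, one per concentration.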

[2] = system: BT-549
How it was run: as §1

[3] = system: CAL-120
How it was run: as §1

[4] = system: CAL-148
How it was run: as §1

[5] = system: CAL-51
How it was run: as §1

[6] = system: CAL-85-1
How it was run: as §1

[7] = system: DU-4475
How it was run: as §1

[8] = system: HCC1143
How it was run: as §1

[9] = system: HCC1599
How it was run: as §1

[10] = system: HCC1937
How it was run: as §1

[11] = system: HDQ-P1
How it was run: as §1

[12] = system: Hs578T
How it was run: as §1

[13] = system: MCF-10A
How it was run: as §1

[14] = system: MDA-MB-231
How it was run: as §1

[15] = system: MDA-MB-436
How it was run: as §1

[16] = system: MDA-MB-453
How it was run: as §1

[17] = system: MDA-MB-468
How it was run: as §1

[18] = system: MFM-223
How it was run: as §1

| SMILES | normalised response [1] | normalised response [2] | normalised response [3] | normalised response [4] | normalised response [5] | normalised response [6] | normalised response [7] | normalised response [8] | normalised response [9] | normalised response [10] | normalised response [11] | normalised response [12] | normalised response [13] | normalised response [14] | normalised response [15] | normalised response [16] | normalised response [17] | normalised response [18] |
| --- | --- | --- | --- | --- | --- | --- | --- | --- | --- | --- | --- | --- | --- | --- | --- | --- | --- | --- |
| Cn1cc(C2=Nc3cc(NC(=O)C(N)C4CCCCC4)cc4c3C2=CNNC4=O)cn1 (configuration not stated) (1000 nM) | 92.3% | 95.4% | 80.1% | 86.4% | 56% | 45.8% | 95.2% | 4.8% | 73.3% | 113% | 97.4% | -123% | -64.4% | 54.1% | 85% | 91.8% | 126% | 87.6% |
| Cn1cc(C2=Nc3cc(NC(=O)C(N)C4CCCCC4)cc4c3C2=CNNC4=O)cn1 (configuration not stated) (10000 nM) | 97.1% | 39.3% | 89.9% | 58.5% | -9.5% | 59.8% | 83.1% | 115% | 82.4% | 95.9% | -67.6% | 84.6% | 31.3% | 54.2% | 92.7% | 41.1% | 13.5% | 10.9% |
| COc1cc2c(cc1O)CC[C@@H]1[C@@H]2CC[C@]2(C)[C@@H](O)CC[C@@H]12 [2-methoxyestradiol] (1000 nM) | 77.8% | 96.5% | 91.8% | 85.8% | 98.3% | 83.5% | 96.6% | 99.8% | 93.5% | 111% | 108% | 84.6% | 98.5% | 34.1% | 85.5% | 108% | 92.5% | 64.7% |
| COc1cc2c(cc1O)CC[C@@H]1[C@@H]2CC[C@]2(C)[C@@H](O)CC[C@@H]12 [2-methoxyestradiol] (10000 nM) | 70.9% | 85.8% | 78.8% | 78.8% | 8.99% | 51.6% | 97.4% | 106% | 89% | 90% | 94.4% | -39.2% | 48.3% | -158% | 81.1% | 94.9% | 77.4% | 52.5% |
| Cc1sc2c(c1C)C(c1ccc(Cl)cc1)=N[C@@H](CC(=O)OC(C)(C)C)c1nnc(C)n1-2 [(+)JQ1] (1000 nM) | 94.4% | 97.4% | 87.5% | 67.3% | 90.6% | 64.5% | 88.2% | -3.05% | 95.5% | 59.3% | 83.5% | 98.9% | 108% | 131% | 66.8% | 104% | 85.6% | 98.1% |
| Cc1sc2c(c1C)C(c1ccc(Cl)cc1)=N[C@@H](CC(=O)OC(C)(C)C)c1nnc(C)n1-2 [(+)JQ1] (10000 nM) | 92.8% | 66.8% | 91.3% | 50.8% | 14.5% | 24% | 81.4% | 123% | 87.9% | 68.2% | 87.6% | 100% | 101% | 62.5% | 72.9% | 102% | -39.7% | 97.8% |
| Oc1ncnc2[nH]ncc12 [Allopurinol] (1000 nM) | 100% | 103% | 95% | 106% | 118% | 99% | 96.8% |  | 97% | 89.9% | 106% | 101% | 94.7% |  | 107% | 63% | 80.5% | 103% |
| Oc1ncnc2[nH]ncc12 [Allopurinol] (10000 nM) | 104% | 89.5% | 101% | 98% | 116% | 83.4% | 98.6% | 117% | 102% | 76% | 108% | 70.8% | 102% | 108% | 99.7% | 75.7% | 79% | 94.1% |
| O=C1CN2Cc3c(ccc(Cl)c3Cl)N=C2N1 [Anagrelide] (1000 nM) | 97% | 97% | 97.8% | 56.1% | 59.7% | 103% | 97.4% |  | 94.3% | 88.6% |  | 83.8% | 104% | 86.2% | 87.3% | 105% | 137% | 102% |
| O=C1CN2Cc3c(ccc(Cl)c3Cl)N=C2N1 [Anagrelide] (10000 nM) | 101% | 89.6% | 98.9% | 60.6% | 54.9% | 108% | 96.3% | 85.1% | 99% | 106% | 78.9% | 100% | 53.2% | 94.7% | 94.9% | 100% | 67% | 69.6% |
| Nc1ncn([C@@H]2O[C@H](CO)[C@@H](O)[C@H]2O)c(=O)n1 [Azacitidine] (1000 nM) | 80.4% | 108% | 101% | 84.3% | 105% | 98.4% | 97% |  | 96.4% |  | 59.9% |  | 101% | 93.2% | 97.7% | 110% | 33.9% | 89.6% |
| Nc1ncn([C@@H]2O[C@H](CO)[C@@H](O)[C@H]2O)c(=O)n1 [Azacitidine] (10000 nM) | 80% | 99.8% | 96.5% | 97.7% | 75.7% | 110% | 86.7% | 87.7% | 92% | 93.3% | 103% | 84.9% | 81.2% | 75.5% | 55.6% | 98.8% | 73.4% | 89.7% |
| O=NN(CCCl)C(=O)NCCCl [Carmustine] (1000 nM) | 97.3% | 96.9% | 95.8% | 98% | 115% | 102% | 96.9% | 105% | 94.9% | 112% | 99% | 106% | 92.1% | 105% | 99.5% | 103% | 86% | 66.4% |
| O=NN(CCCl)C(=O)NCCCl [Carmustine] (10000 nM) | 98.8% | 84.3% | 98.7% | 98.7% | 100% | 114% | 95.3% | 54.2% | 102% | 86.4% | 91.3% | 100% | 104% | 96.9% | 88.9% | 99.4% | 138% | 94.8% |
| CC1=C2C[C@H]3[C@@H](CC=C4C[C@@H](O)CC[C@@]43C)[C@@H]2CC[C@]12O[C@@H]1C[C@H](C)CN[C@H]1[C@H]2C [Cyclopamine] (1000 nM) | 101% | 108% | 101% | 95.1% | 95.5% | 101% | 101% | 100% | 104% | 70% | 96.9% | 104% | 108% | 119% | 99.3% | 103% | 78.1% | 75.1% |
| CC1=C2C[C@H]3[C@@H](CC=C4C[C@@H](O)CC[C@@]43C)[C@@H]2CC[C@]12O[C@@H]1C[C@H](C)CN[C@H]1[C@H]2C [Cyclopamine] (10000 nM) | 98% | 59% | 97.8% | 100% | 98.9% | 66.8% | 103% |  | 101% |  | 110% | 51.4% | 58.9% | 116% | 92.2% | 103% | 155% | 89.6% |
| CC(=O)O[C@@]12CO[C@@H]1C[C@H](O)[C@@]1(C)C(=O)[C@H](O)C3=C(C)[C@@H](OC(=O)[C@H](O)[C@@H](NC(=O)OC(C)(C)C)c4ccccc4)C[C@@](O)([C@@H](OC(=O)c4ccccc4)[C@H]21)C3(C)C [Docetaxel] (100 nM) | 57.1% | 69.3% | 86.7% | 83.2% | 16.6% | 19.7% | 95.2% | 76% | 82.8% | 102% | 75.8% | 49.4% | 34.9% | -12.5% | 69% | 100% | 145% | 59.5% |
| CC1(C)CNc2cc(NC(=O)c3cccnc3NCc3ccncc3)ccc21 [Motesanib] (1000 nM) | 98% | 123% | 99.5% | 103% | 96.1% | 91.8% | 100% | 103% | 97.3% |  | 108% | 83.6% | 95.4% | 97.7% | 79% | 101% | 108% | 97% |
| CC[C@@H]1C(=O)OC[C@@H]1Cc1cncn1C [Pilocarpine] (4000 nM) | 96% | 112% | 99.3% | 73.7% | 104% | 95.5% | 95.3% | 72.1% | 92.5% |  |  | 70.9% | 101% | 97.8% | 81.4% | 101% | 66.5% | 69.2% |
| CC[C@@H]1C(=O)OC[C@@H]1Cc1cncn1C [Pilocarpine] (40000 nM) | 98.6% | 107% | 52.5% | 96.3% | 98.4% | 114% | 96.7% | 80.7% | 97% | 97.7% |  |  | 83.9% | 93.1% | 92.3% | 93.9% |  | 97.4% |
| Nc1nc2[nH]cnc2c(=S)[nH]1 [Thioguanine] (1000 nM) | 96.4% | 108% | 103% | 94% | 102% | 112% | 104% |  | 97.8% | 114% | 109% | 103% | 98.7% | 48.4% | 101% | 106% | 121% | 92.8% |

Source: the supplement of paper PMC4862054
